Measurements taken from patent US10947546B2, “Methods and compositions for translational profiling and molecular phenotyping” (The Rockefeller University, priority 2008, dated 2021).

Experiments:
[1] = tested on: BAC D2 striatopallidal medium spiny neurons; assay: 2PLSM dendritic Ca2+ imaging on focal S1P application (functional Gpr6 receptors), BAC D2 neurons in brain slices; type: cell-based, mouse; conditions: for Percent increase in fluorescence (ΔG/R), median: S1P puff 10 μM
Description: Gpr6 encodes a G protein-coupled receptor for the lysophospholipid sphingosine 1-phosphate (S1P) (A. Ignatov, J. Lintzel, H. J. Kreienkamp, H. C. Schaller, Biochem Biophys Res Commun 311, 329-36 (Nov. 14, 2003)). In heterologous expression systems, S1P activation of Gpr6 receptors induces the release of Ca2+ from intracellular stores. […] To determine whether functional Gpr6 receptors were selectively expressed in striatopallidal neurons, BAC D2 striatopallidal or BAC D1 striatonigral medium spiny neurons (expressing soluble eGFP) were identified in brain slices and patch clamped (FIG. 30) (M. Day et al., Nat Neurosci 9, 251-9 (February, 2006)). Neurons were loaded with Alexa 594 (50 μM) to allow dendrites to be seen and with Fluo-4 (200 μM) to monitor intracellular Ca2+ concentration using 2-photon laser scanning microscopy (2PLSM). After allowing the dyes to equilibrate, neurons were imaged and a second pipette containing S1P (10 μM) was brought into close physical proximity to a dendrite, 60-80 microns from the soma (a and b). […] Nairn, P. Greengard, J Neurochem 72, 2015-21 (May, 1999)) and/or inhibition of adenylyl cyclase type 5 (AC5; Adcy5) (C.
Striatonigral (BAC D1) or striatopallidal (BAC D2) neurons expressing soluble eGFP (S. Falcon, R. Person, Bioinformatics 23, 257-8 (2007)) in 275 μm thick corticostriatal slices were identified by somatic eGFP fluorescence. eGFP 2PLSM green signals (500-550 nm) were acquired from eGFP+ BAC Drd2 neurons using 810 nm excitation, while eGFP+ BAC Drd1 neurons required 900 nm excitation. eGFP+ MSNs were then patched using infrared-differential interference contrast (IR-DIC) video microscopy with a Hamamatsu C2400 Newvicon camera/controller system (Hamamatsu, Japan) and a 60X/0.9NA water-dipping lens. […] The pipette solution contained the following (in mM): 135 KMeSO4 (ICN Biomedicals Inc., Aurora, Ohio), 5 KCl, 10 HEPES, 2 MgATP, 0.2 Na2GTP, and 0.1 spermine, pH=7.25-7.3 with KOH, 270 mOsm/l. As measured in the bath, the pipette resistance was ˜4 MΩ. Seals were formed in voltage-clamp mode on the cell somas with series resistance >1 GΩ. After seal rupture in whole-cell configuration the series-resistance decreased to 10-15 MΩ. […] The thapsigargin was initially dissolved in DMSO at a concentration of 10 mM. This stock was then diluted 1000× in the internal recording solution. Following break in, the internal solution was allowed to approach diffusional equilibrium for at least 15 min prior to imaging. The cells were voltage clamped at −70 mV and monitored for somatic depolarization.
For the duration of the recordings, 2PLSM green and red signals (570-620 nm) were acquired using 810 nm excitation with 90 MHz pulse repetition frequency and ˜250 fs pulse duration at the sample plane.

[2] = tested on: BAC D1 striatonigral medium spiny neurons; assay: 2PLSM dendritic Ca2+ imaging on focal S1P application, BAC D1 neurons in brain slices; type: cell-based, mouse; conditions: S1P puff 10 μM, n=4
Description: Gpr6 encodes a G protein-coupled receptor for the lysophospholipid sphingosine 1-phosphate (S1P) (A. Ignatov, J. Lintzel, H. J. Kreienkamp, H. C. Schaller, Biochem Biophys Res Commun 311, 329-36 (Nov. 14, 2003)). In heterologous expression systems, S1P activation of Gpr6 receptors induces the release of Ca2+ from intracellular stores. […] To determine whether functional Gpr6 receptors were selectively expressed in striatopallidal neurons, BAC D2 striatopallidal or BAC D1 striatonigral medium spiny neurons (expressing soluble eGFP) were identified in brain slices and patch clamped (FIG. 30) (M. Day et al., Nat Neurosci 9, 251-9 (February, 2006)). […]
Striatonigral (BAC D1) or striatopallidal (BAC D2) neurons expressing soluble eGFP (S. Falcon, R. Person, Bioinformatics 23, 257-8 (2007)) in 275 μm thick corticostriatal slices were identified by somatic eGFP fluorescence. eGFP 2PLSM green signals (500-550 nm) were acquired from eGFP+ BAC Drd2 neurons using 810 nm excitation, while eGFP+ BAC Drd1 neurons required 900 nm excitation. eGFP+ MSNs were then patched using infrared-differential interference contrast (IR-DIC) video microscopy with a Hamamatsu C2400 Newvicon camera/controller system (Hamamatsu, Japan) and a 60X/0.9NA water-dipping lens. […] As measured in the bath, the pipette resistance was ˜4 MΩ. […] The cells were voltage clamped at −70 mV and monitored for somatic depolarization. […]

DARPP-32 = assay: Threonine 34 DARPP-32 phosphorylation after S1P treatment of striatal slices; type: cell-based; conditions: 5 minutes after S1P addition, 1.04±0.17 at 0 minutes, n=12
[3] = tested on: Ferritin heavy chain mRNA (Fth1); conditions: 100 μg/ml ferric ammonium citrate, 36 hours, HEK293T
Description: Rapid immunoaffinity purification of polysomes was achieved from HEK293T cells transiently transfected with the eGFP-L10a transgene but not mock transfected cells. HEK293T cells transfected with eGFP-L10a were homogenized in lysis buffer. The solubilized and clarified lysate was loaded onto a linear density (20-50% w/w) gradient of sucrose and centrifuged for 2 hours at 4° C. using a Beckman SW41 rotor at 40,000 r. p. m. (200,000×g). 750 μl fractions were collected as absorbance at 254 nm was monitored with an ISCO UA-6 UV detector.
HEK293T cells were transiently transfected (˜30% efficiency) with eGFP (mock) or eGFP-L10a constructs and grown in medium alone (no treatment, NT) or in medium supplemented with 100 μg/ml ferric ammonium citrate [pH 7.0] (iron) for 36 hours. […] (b) The post-mitochondrial supernatants of untreated or iron-treated cells were loaded onto linear sucrose gradients (20-50% w/w). After velocity sedimentation, fractions (direction of sedimentation noted by arrow) were collected while UV absorbance (254 nm) was being measured. […] Non-polysome and polysome gradient fractions were generated as indicated. To avoid Ferritin mRNAs associated with mRNPs, only heavier polysomes (with greater than 4 ribosomes) were included in the polysome fraction. […] (e) To determine if the translating ribosome affinity purification (TRAP) methodology could faithfully reflect the changes observed in c, a direct eGFP immunoprecipitation of post-mitochondrial supernatants (whole cell lysates, unfractionated) was performed.
In some experiments, 20 ng of purified RNA was used to produce cDNA with a NuGEN WT Ovation kit (NuGEN Technologies, San Carlos, Calif.) and the resulting cDNA was purified and quantified. 10 ng of cDNA was used for each real-time gene expression assay. Applied Biosystems (Foster City, Calif.) TaqMan pre-designed gene expression assays were used, following the manufacturer's instructions and using an Applied Biosystems 7900 Sequence Detection System.
Table 10). To provide an initial test of the data, quantitative PCR studies were carried out using independent biological BACarray D1 and D2 samples and a different cDNA amplification procedure (A. Alexa, J. Rahnenfuhrer, T. Lengauer, Bioinformatics 22, 1600-7 (2006)).

[4] = tested on: GABAA receptor mIPSCs in BAC D2 striatopallidal neurons; assay: Whole-cell voltage-clamp GABAergic mIPSC recording after 15-day cocaine treatment, BAC D2 neurons; type: in vivo, mouse; conditions: cocaine 15 days
[5] = tested on: GABAA receptor mIPSCs in BAC D1 striatonigral neurons; assay: Whole-cell voltage-clamp GABAergic mIPSC recording after 15-day cocaine treatment, BAC D1 neurons
[6] = iron treatment, range from replicates

Compound: C/C=C(/C)C(=O)O[C@H]1C(C)=C2[C@H]([C@@H]1OC(=O)CCCCCCC)[C@@](C)(OC(C)=O)C[C@H](OC(=O)CCC)[C@@]1(O)[C@H]2OC(=O)[C@@]1(C)O [thapsigargin]
- response to S1P in BAC D2 striatopallidal neurons ([1]; thapsigargin 10 μM in pipette, depletion of intracellular Ca2+ stores): abolished

Compound: CCCCCCCCCCCCC/C=C/[C@@H](O)[C@@H](N)COP(=O)(O)O [S1P, sphingosine 1-phosphate]
- Percent increase in fluorescence (ΔG/R), median [2]: 17%
- Percent increase in fluorescence (ΔG/R), median ([1]; BAC D2 medium spiny neurons, n=6): 146%
- Percent increase in fluorescence (ΔG/R), median ([1]; thapsigargin loaded BAC D2 medium spiny neurons, n=4): 4%
- dendritic Ca2+ levels ([1]; focal application of S1P 10 μM, clamped at −70 mV, BAC D2): consistently and reversibly increased
- threonine 34 DARPP-32 phosphorylation (DARPP-32): 0.58 normalized units

Compound: ferric ammonium citrate [iron]
- iron-induced fold-change in Fth1 mRNA levels relative to Actb mRNA, polysome IP samples ([3]; IP from polysomes): 2.01-2.43
- iron-induced fold-change in Fth1 mRNA levels relative to Actb mRNA, direct IP samples ([3]; IP from whole cell lysates): 1.80-1.93
- range of fold-change of Fth1 mRNA in non-polysome fraction [3, 6]: 0.16-0.22
- range of fold-change of Fth1 mRNA in polysome fraction [3, 6]: 1.83-2.15

Compound: COC(=O)[C@H]1[C@@H](OC(=O)c2ccccc2)C[C@@H]2CC[C@H]1N2C [cocaine]
- mean 10-90% rise times of mIPSCs ([4]; saline 0.65±0.007): 0.64±0.010
- mean mIPSC frequency ([4]; saline 0.72±0.05 Hz): 0.78±0.07 Hz
- mean number of channels per synapse (N) ([4]; saline 33.8±2.7): 33.0±1.6
- number of small amplitude mIPSCs (<75 pA) in equal length records (7 min) ([4]; saline 68.1±9.7): 71.7±7.5
- number of receptors per synapse (N), representative variance-mean current plot ([4]; saline N=29): 31
- unitary receptor conductance (g), representative variance-mean current plot ([4]; saline g=33 pS): 29 pS
- mIPSC frequency, median ([5]; cocaine 20 mg/kg/day 15 days, saline median 0.82 Hz): 1.03 Hz
- mean 10-90% rise times of mIPSCs ([5]; cocaine 15 days, saline 0.64±0.008): 0.65±0.006
- mean number of channels per synapse (N) ([5]; cocaine 15 days, saline 33.1±1.4): 29.3±1.0
- number of small amplitude mIPSCs (<75 pA) in equal length records (7 min) ([5]; cocaine 15 days, saline 79.4±8.2): 104.2±6.3
- GABAA receptors (N) per synapse, representative variance-mean current plot ([5]; cocaine 15 days, saline N=33): 27
- unitary receptor conductance (g), representative variance-mean current plot ([5]; cocaine 15 days, saline g=31 pS): 30 pS
